Results taken from patent US8129427B2, “2-phenylethylamino derivatives as calcium and/or sodium channel modulators” (Newron Pharmaceuticals S.p.A., priority 2005, dated 2012).
Counter-ions that a name gives are not always drawn.

How the values were obtained:
[1] = molecular target: N-type calcium channels (Homo sapiens, UniProt Q00975); assay: N-type calcium channel influx assay (fluorescence); type: cell-based; conditions: differentiated IMR32 cells, nifedipine 1 μM, 100 mM KCl depolarization; read-out: IC50
[2] = tested on: L-type calcium channels; type: cell-based, mouse; conditions: AtT20/D16v-F2 cells, ω-conotoxin 1 μM, 100 mM KCl depolarization
[3] = tested on: TTXs sodium channels; assay: TTXs-sodium channel influx assay (membrane potential fluorescence); type: cell-based, rat; conditions: ND7/23 cells, veratridine 100 μM
Description: ND7/23 rat dorsal root ganglion-derived cell line endogenously expresses a mixed population of TTXs sodium channels (such as Nav1.3, Nav1.2, Nav1.1, Nav1.6). These cells lack of TTXr sodium channels as shown by the absence of their respective transcripts. ND7/23 cells were grown in DMEM supplemented with 10% FBS and 1 mM sodium piruvate.
The cells were seeded at 50,000 cells/well on 96 poly-L-lysine-coated plates and further incubated for 18-24 h before use.
The Membrane Potential Kit Assay (Molecular Devices), based on a negatively charged fluorescent dye able to monitor changes in membrane potential caused by the sodium influx due to the channel opening, was used for the assay.
Cells were incubated with the dye loading for 30 minutes at 25° C. Then, 100 nM of the toxin Anemonia sulcata (used as enhancer of the channel opener response) alone or in the presence of TTX (as reference standard) or test compound were added for further 15 minutes.
The fluorescence (excitation: 530 nm, emission: 565 nm wavelength) was measured before and after (40-45 s) the automated injection of the sodium channel opener veratridine (100 μM) using a Victor plate reader (Perkin Elmer).
The inhibition curves were calculated from 5 concentrations, each in triplicate, and the IC50 determined using a linear regression analysis.

[4] = molecular target: recombinant human N-type channels, h α1B (hCav2.2)+β1b+α2δ-1 subunits (Homo sapiens, UniProt Q00975); assay: Patch clamp studies of calcium currents inhibition in HEK293 cells; type: cell-based; conditions: tonic block, preconditioning −50/−55 mV (half maximal steady-state inactivated condition); read-out: IC50 (Vhalf)
Description: Functional inhibition of the N-type Ca currents was studied using whole cell patch clamp methods (Hamill O. P., Marty A., Neher E., Sakmann B., Sigworth F. J. Pflugers Arch. (1981) 391: 85-100) on HEK293 cells expressing recombinant human N-type channels, obtained after transient transfection of h α1B (hCav2.2)+β1b+α2δ-1 subunits.
Membrane currents were recorded and filtered at 5 kHz with an Axon Axopatch 200B amplifier and digitized with an Axon Digidata 1322A (Axon Instruments, CA, USA). Voltage clamping of membrane potentials and data acquisition were controlled online with Axon pClamp8 software. Measuring and reference electrodes were AgCl—Ag electrodes. Cells had initial seal resistances of >1 GΩ and access resistances of 4.2±0.2 MΩ. Cells were continuously superfused with extracellular solutions using a Biologic RSC-200.
For calcium currents recording the control bath solution contained (mM): Choline chloride (70), MgCl2 (1), BaCl2 (20), TEA.Cl (50), Hepes (10), Glucose (10). Internal pipette solution consisted of (mM): CsCl (140), EGTA (10), MgCl2 (2), Hepes (10), MgATP (1), GTP Tris (0.3).
(§1) Compounds were dissolved as 20 mM stock solutions in DMSO and then diluted to the final concentration in the external solutions.
A two-step protocol was used to determine the voltage dependence of the block:
N-type current was activated by a 600 ms step pulse to +10 mV (test pulse) from a 5000 ms preconditioning potential of −110 mV (resting condition) or −50/−55 mV (half maximal steady-state inactivated condition), respectively.
The amplitude of calcium current peaks evoked by the respective test pulses at a frequency of 0.06 Hz were measured before and after exposure to the test substance. Tonic block of currents was calculated as the difference between the peak calcium current measured at the end of a stabilization period in the control external bath solution and peak currents measured at the end of test substance perfusion period (when steady state is reached) divided by control peaks. […]

[5] = molecular target: T1, recombinant Nav 1.3 channels (Homo sapiens, UniProt Q9NY46); assay: Patch clamp studies of sodium currents inhibition in HEK293 cells; type: cell-based; conditions: tonic block, preconditioning −50 mV (half maximal steady-state inactivated condition); read-out: IC50 (Vhalf)
T1 construct: expressed in transfected cells; host or cells: HEK293 cells
Description: Cells and methods: Functional inhibition of the sodium currents was studied using whole cell patch clamp methods (Hamill O. P., Marty A., Neher E., Sakmann B., Sigworth F. J., Pflugers Arch. (1981) 391 (2): 85-100) on HEK293 cells expressing recombinant Nav 1.3 channels. Membrane currents were recorded as described in the example above.
For sodium current recording control bath solution contained (mM): NaCl (80), Choline chloride (38), CaCl2 (1.3), MgCl2 (2), KCl (2), CdCl2 (0.4), NiCl2 (0.3), TEA.Cl (20), Hepes (10), Glucose (10). Internal pipette solution consisted of (mM): EGTA (10), NaCl (10), CaCl2 (1.3), MgCl2 (2), Hepes (10), CsF (130), MgATP (1).
as §1
Voltage protocols and data analyses: A two-step protocol was used to determine the voltage dependence of the block:
sodium current was activated by a 30 ms step pulse to 10 mV (test pulse) from a 2000 ms preconditioning potential of −100 mV (resting condition) or −50 mV (half maximal steady-state inactivated condition), respectively.
The amplitude of sodium current peaks evoked by the respective test pulses at a frequency of 0.06 Hz were measured before and after exposure to the test substance. Tonic block of currents was calculated as the difference between the Nacurrent peak measured at the end of a stabilization period in the control external bath solution and the current peak measured at the end of test substance perfusion period (when steady state is reached) divided by control peaks. Drug concentration-inhibition curves were obtained by plotting tonic blocks versus drug concentrations. Dose-response curves were fitted to the tonic block data, according to the logistic equation: y=A2+(A1−A2)/[1+(x/IC50)^p]. A1 and A2 are fixed values of 0 and 1 corresponding to 0 and 100% current inhibition, x is the drug concentration, IC50 is the drug concentration resulting in 50% current inhibition and p is the corresponding slope factor.

[6] = molecular target: T2, MAO-B (Rattus norvegicus, UniProt P19643); assay: In vitro MAO-B enzyme activity radioenzymatic assay; type: biochemical; conditions: 100 μM compound, rat brain crude mitochondrial fraction, 14C-PEA substrate
T2 construct: from tissue; host or cells: rat brain crude mitochondrial fraction
T2 sequence (P19643 1-520): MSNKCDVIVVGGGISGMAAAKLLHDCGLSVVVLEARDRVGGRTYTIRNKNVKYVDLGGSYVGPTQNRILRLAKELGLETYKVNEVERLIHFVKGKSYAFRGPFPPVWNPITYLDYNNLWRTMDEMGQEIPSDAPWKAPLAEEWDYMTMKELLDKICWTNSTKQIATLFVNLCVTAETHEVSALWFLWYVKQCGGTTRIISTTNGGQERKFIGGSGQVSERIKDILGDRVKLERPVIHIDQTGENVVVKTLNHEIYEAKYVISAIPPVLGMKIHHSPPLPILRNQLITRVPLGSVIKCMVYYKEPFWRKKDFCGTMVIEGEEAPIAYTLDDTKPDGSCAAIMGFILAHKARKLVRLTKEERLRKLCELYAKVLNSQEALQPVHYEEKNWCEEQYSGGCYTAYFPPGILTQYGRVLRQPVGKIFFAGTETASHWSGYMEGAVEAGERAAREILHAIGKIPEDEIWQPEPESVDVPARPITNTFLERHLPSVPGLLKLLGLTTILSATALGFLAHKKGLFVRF
Description: Male Wistar rats (Harlan, Italy—175-200 g) were sacrificed under light anaesthesia and brains were rapidly removed and homogenized in 8 volumes of ice-cold 0.32 M sucrose buffer containing 0.1 M EDTA, pH 7.4. The crude homogenate was centrifuged at 2220 rpm for 10 minutes and the supernatant recovered. The pellet was homogenized and centrifuged again. The two supernatants were pooled and centrifuged at 9250 rpm for 10 minutes at +4° C. The pellet was resuspended in fresh buffer and centrifuged at 11250 rpm for 10 minutes at +4° C. The resulting pellet was stored at −80° C.
The enzyme activities were assessed with a radioenzymatic assay using the substrates ^14C-serotonin (5-HT) and ^14C-phenylethylamine (PEA) for MAO-A and MAO-B, respectively.
The mitochondrial pellet (500 μg protein) was resuspended in 0.1 M phosphate buffer (pH 7.4). 500 μl of the suspension were added to a 50 μl solution of the test compound or buffer, and incubated for 30 min at 37° C. (preincubation) then the substrate (50 μl) was added. The incubation was carried out for 30 minutes at 37° C. (^14C-5-HT, 5 μM) or for 10 minutes at 37° C. (^14C-PEA, 0.5 μM).
The reaction was stopped by adding 0.2 ml of 37% HCl or perchloric acid. After centrifugation, the deaminated metabolites were extracted with 3 ml of diethyl ether (5-HT) or toluene (PEA) and the radioactive organic phase was measured by liquid scintillation spectrometry at 90% efficiency. The amount of neutral and/or acidic metabolites formed as a result of MAO activity was obtained by measuring the radioactivity of the eluate.
The activity of MAO in the sample, corresponding to a percentage of radioactivity compared with the control activity in the absence of the inhibitor, was expressed as nmoles of substrate transformed/mg protein/min.

[7] = tested on: maximal electroshock seizures in mice; assay: Maximal electroshock test (MES) in mice; type: in vivo, mouse; conditions: i.v., 5 minutes before testing
Source text: Animals and Apparatus: Male CDl mice weighing 25 g were used. The procedure described by White et al. (White H. S., Woodhead J. H., Franklin […]., and Wolf H. H. Antiepileptic Drugs (1995) 4th ed: 99-110, Raven Press, Ltd., New York) was followed. An Ugo Basile electroconvulsive generator (Model ECT UNIT 7801) was used to deliver an electrical stimulus sufficient to produce a hindlimb tonic extensor response in at least 97% of control animals. The stimulus was delivered intra-aurally through clip electrodes in mice (0.7 s of a 40 mA shock, with a pulse train of 80 Hz having a pulse duration of 0.4 ms). […] Ten mice were studied per group. Complete suppression of the hindlimb tonic extensor component of seizures was taken as evidence of anticonvulsant activity.

T1 sequence (Q9NY46 whole entry): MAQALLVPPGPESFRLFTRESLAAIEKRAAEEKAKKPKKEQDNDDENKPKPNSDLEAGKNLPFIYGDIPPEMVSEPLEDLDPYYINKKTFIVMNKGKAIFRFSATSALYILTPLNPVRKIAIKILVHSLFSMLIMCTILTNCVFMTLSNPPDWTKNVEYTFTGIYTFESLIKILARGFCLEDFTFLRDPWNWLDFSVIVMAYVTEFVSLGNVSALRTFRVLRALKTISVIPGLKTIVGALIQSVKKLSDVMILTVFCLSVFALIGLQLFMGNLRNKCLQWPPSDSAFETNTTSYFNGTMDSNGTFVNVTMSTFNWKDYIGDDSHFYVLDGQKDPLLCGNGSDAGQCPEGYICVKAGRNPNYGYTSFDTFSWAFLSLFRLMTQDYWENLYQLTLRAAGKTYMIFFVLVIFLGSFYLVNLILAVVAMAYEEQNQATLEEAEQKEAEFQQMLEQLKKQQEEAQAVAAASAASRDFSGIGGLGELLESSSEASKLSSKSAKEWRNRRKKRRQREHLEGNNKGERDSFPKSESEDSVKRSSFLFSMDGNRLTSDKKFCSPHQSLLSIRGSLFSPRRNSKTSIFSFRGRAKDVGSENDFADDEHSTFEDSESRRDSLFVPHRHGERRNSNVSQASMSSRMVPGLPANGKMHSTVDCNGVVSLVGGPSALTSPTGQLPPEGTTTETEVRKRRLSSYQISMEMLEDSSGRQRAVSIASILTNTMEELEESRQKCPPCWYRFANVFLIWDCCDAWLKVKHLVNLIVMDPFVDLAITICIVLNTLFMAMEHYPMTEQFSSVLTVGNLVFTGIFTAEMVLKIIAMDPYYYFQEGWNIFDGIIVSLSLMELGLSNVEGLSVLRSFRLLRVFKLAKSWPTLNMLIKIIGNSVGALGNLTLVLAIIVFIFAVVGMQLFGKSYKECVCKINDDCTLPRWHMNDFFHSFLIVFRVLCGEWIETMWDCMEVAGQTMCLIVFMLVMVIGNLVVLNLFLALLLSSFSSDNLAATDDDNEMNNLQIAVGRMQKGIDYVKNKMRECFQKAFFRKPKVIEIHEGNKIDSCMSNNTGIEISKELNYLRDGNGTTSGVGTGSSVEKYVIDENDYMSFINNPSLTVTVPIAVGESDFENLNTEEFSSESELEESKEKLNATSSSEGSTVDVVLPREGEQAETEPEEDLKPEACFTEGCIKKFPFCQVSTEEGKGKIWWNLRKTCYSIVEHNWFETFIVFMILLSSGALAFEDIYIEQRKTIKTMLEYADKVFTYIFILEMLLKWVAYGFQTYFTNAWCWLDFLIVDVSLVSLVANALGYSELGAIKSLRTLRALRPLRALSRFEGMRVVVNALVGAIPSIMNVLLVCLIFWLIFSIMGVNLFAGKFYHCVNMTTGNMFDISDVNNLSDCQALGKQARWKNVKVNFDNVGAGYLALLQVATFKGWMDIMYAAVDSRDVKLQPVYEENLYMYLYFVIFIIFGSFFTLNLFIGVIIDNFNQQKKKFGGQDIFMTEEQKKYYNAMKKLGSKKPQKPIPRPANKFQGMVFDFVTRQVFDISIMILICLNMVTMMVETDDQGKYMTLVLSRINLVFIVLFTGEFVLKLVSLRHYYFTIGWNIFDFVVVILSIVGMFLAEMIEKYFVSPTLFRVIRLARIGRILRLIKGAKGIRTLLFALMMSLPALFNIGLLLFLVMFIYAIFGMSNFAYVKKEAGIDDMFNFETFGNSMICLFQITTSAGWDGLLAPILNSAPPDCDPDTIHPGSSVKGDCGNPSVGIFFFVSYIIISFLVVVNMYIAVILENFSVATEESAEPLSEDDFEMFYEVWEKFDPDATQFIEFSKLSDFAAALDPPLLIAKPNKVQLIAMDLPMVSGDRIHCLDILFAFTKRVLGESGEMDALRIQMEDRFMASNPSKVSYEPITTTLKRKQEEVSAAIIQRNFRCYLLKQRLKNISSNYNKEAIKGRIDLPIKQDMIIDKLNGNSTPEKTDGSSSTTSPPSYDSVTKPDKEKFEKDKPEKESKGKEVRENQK

SMILES | IC50 [1] [µM] | IC50 [2] [µM] | IC50 [3] [µM] | IC50 [4] [µM] | IC50 [5] [µM] | inhibition at 100 µM [6] [%] | 50% Protection [7]
CNC(=O)CN(CCc1ccc(OCc2cccc(F)c2)c(OC)c1)CC1CC1 [Example 8, 2-[[2-[4-(3-Fluoro-benzyloxy)-3-methoxy-phenyl]-ethyl]-(cyclopropylmethyl)amino]-N-methyl-acetamide hydrochloride] | 2.1 | 3.8 | 3.5 | 5.2 | 9.8 |  | 
C[C@H](NCc1ccc(OCc2cccc(F)c2)cc1)C(N)=O [safinamide, (S)-(+)-2-[4-(3-fluoro-benzyloxy)-benzylamino]-propanamide, reference compound] |  |  |  |  |  | 100 | (4.0 mg/kg/iv)
